The series is described as follows: method code G-GLC, from DOI: 10.1021/je0101909.

For `Clc1cc(-c2ccc(Cl)c(Cl)c2Cl)cc(Cl)c1Cl`, the logP – broadly, a log measure of how a compound divides between an organic and an aqueous phase – was 6.73.

`Clc1ccc(-c2ccc(Cl)c(Cl)c2Cl)cc1Cl` came in with a logP of 6.61.

`Clc1ccc(-c2cc(Cl)c(Cl)c(Cl)c2)c(Cl)c1`: the logP is 6.5.

Compound `Clc1ccc(-c2cc(Cl)c(Cl)c(Cl)c2)cc1Cl` came in with a lipophilicity (logP) of 6.56.

In the case of `Clc1cc(-c2cc(Cl)c(Cl)c(Cl)c2)cc(Cl)c1Cl`, the log partition coefficient (logP) is 7.01.

`Clc1ccc(-c2cc(Cl)c(Cl)c(Cl)c2Cl)cc1` came in with a logP of 6.47.

`Clc1cc(Cl)c(-c2cc(Cl)c(Cl)c(Cl)c2)cc1Cl` came in with a logP of 6.82.

The compound `Clc1ccc(-c2cc(Cl)c(Cl)cc2Cl)cc1Cl` showed a logP of 6.49.

On to `Clc1ccc(-c2cc(Cl)c(Cl)c(Cl)c2Cl)cc1Cl`, for which the logP was 6.75.

In turn, `Clc1ccc(-c2cc(Cl)c(Cl)c(Cl)c2)cc1` registered a lipophilicity (logP) of 6.53.

On to `Clc1cc(-c2cc(Cl)c(Cl)c(Cl)c2Cl)cc(Cl)c1Cl`, for which the logP stood at 7.15.

For the origin of these results see the SangsterLogP compilation.
